From publication PMC10591846 (Cell reports, 2023) come the findings set out here.

One test has as its target T1, Pirh2 (Homo sapiens, UniProt Q96PM5).
T1 sequence (Q96PM5 1-261): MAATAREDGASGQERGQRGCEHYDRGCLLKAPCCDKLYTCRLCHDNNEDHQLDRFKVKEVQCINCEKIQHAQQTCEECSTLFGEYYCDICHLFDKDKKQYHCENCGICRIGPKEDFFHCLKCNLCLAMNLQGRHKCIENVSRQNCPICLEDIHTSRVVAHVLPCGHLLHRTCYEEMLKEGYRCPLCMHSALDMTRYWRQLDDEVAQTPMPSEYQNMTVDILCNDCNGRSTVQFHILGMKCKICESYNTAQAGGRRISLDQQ
The experiment in a line: In vitro peptide binding to Pirh2. The following applies: Figure S12.

The subject of a further test is KLHDC10. The test is described as follows: In vitro peptide binding to KLHDC10. The following applies: Figure S12.

Regarding KHKLEQLRNSCA, at Pirh2, the “binding to Pirh2 in vitro” value was “did not bind”. For the same sequence, the “binding to KLHDC10 in vitro” value in the test with KLHDC10 was “did not bind”.
